# According to US20190119635A1, “MODULATION OF T LYMPHOCYTES” (Fate Therapeutics, Inc., priority 2015, published 2019):
# Tested on: CD3+ T-cells pre-isolated from human peripheral blood
# Assay: Gene expression panel of CD3+ T-cells treated with dmPGE2 (Affymetrix U133 plus 2.0 GeneChip)
# Assay type: cell-based
# Details: 10 μM dmPGE2, 2 hours at 37° C.; genes ATF3, CREM, GEM, CXCL2, MMP9, PLAUR, AREG, BCL2A1, DUSP4, FOS, FOSL2, JUN, MYC, NR4A2, NR4A3, SOCS1, SOCS3, ULBP2; mean of 3 donors; FIG. 1
# Procedure: RNA was extracted from CD3+ T-cells pre-isolated from human peripheral blood (AllCells, Aiameda CA) (n=3 donors) post ex vivo treatment (2 hours at 37° C. in StemSpan-ACF (StemCell Technologies, Vancouver, Canada)) with 10 μM dmPGE2 (Fate therapeutics, San Diego, Calif.) or vehicle control (DMSO).
# Following cell treatments, levels mRNA were quantitated from PicoPure isolated mRNA (Life Technologies, Carlsbad, Calif.) using Affymetrix GeneChip technology. Affymetrix U133 plus 2.0 GeneChip hybridization of all samples was performed in accordance with the manufacturer's recommendations (Affymetrix, Santa Clara, Calif.), involving roughly 200 ng of total RNA and Message Amp II (Life Technologies, Carlsbad, Calif.) standard two round amplification protocols. Probe intensities were normalized according to a log scale robust multi-array analysis (RMA) method (Affymetrix Santa Clara, Calif.). A parametric paired t-test (Benjamini-Hochberg false discovery rate <0.05, adjusted p-value/q-value <0.05, and fold change > or <2 fold) detected probes with significant changes due to the treatment with dmPGE2 and dexamethasone.
# The probe intensities were converted into linear fold changes of relative expression levels of mRNA by comparison of dmPGE2 and dexamethasone treated CD3+ T-cells in comparison to the vehicle treated control samples. […]
smiles,measurement,value
"CCCCC(C)(C)[C@H](O)/C=C/[C@H]1[C@H](O)CC(=O)[C@@H]1C/C=C\CCCC(=O)O [dmPGE2, 16,16-dimethyl PGE2]",statistically significant increase in expression (linear fold change of mRNA vs vehicle control),at least 2 fold
